Tested on: mouse EST cluster TC20248 (CitE homolog gene) in white adipose tissue
Experiment: Affymetrix GeneChip analysis of white adipose tissue mRNA from β3-agonist treated mice
Format: in vivo
Details: male C57B1/6J mice, CL 316,243 1 mg/kg injected every 12 h, 2 doses, white adipose tissue collected at 24 h, versus saline control, Mu19K GeneChips
Experimental: Male C57B1/6J mice, 12 weeks old, were housed under conditions of ambient temperature and free access to water and chow. Either the β3-selective agonist CL 316,243 (1mg/kg) or saline was injected every 12h with 2 doses during a total period of 24 hours. The animals were decapitated 24 h after the experiment was started, and the white adipose tissue was quickly collected and immediately frozen into liquid nitrogen.
PolyA^+ mRNAs were extracted from white adipose tissue from control and β3-agonist treated mice respectively. They were reverse transcribed using a T7-tagged oligo-dT primer and double-stranded cDNAs were generated. These cDNAs were then amplified and labeled using In vitro transcription (IVT) with T7 RNA polymerase and biotinylated nucleotides. The populations of cRNAs obtained after IVT were purified and fragmented by heat to produce a distribution of RNA fragment sizes from approximately 35 to 200 bases. […] The cartridges were scanned using a Hewlett-Packard confocal scanner and the images were analyzed with the GeneChip 3.1 software (Affymetrix). The identity of the genes represented on the Affymetrix GeneChips was assessed by performing searches using BLAST (Altschul et al., J. Molec. Biol., 1990, 215, 403-410), which is incorporated herein by reference in its entirety) on available protein sequence databanks. […]

C[C@H](Cc1ccc2c(c1)OC(C(=O)[O-])(C(=O)[O-])O2)NC[C@H](O)c1cccc(Cl)c1.[Na+].[Na+] [CL 316,243]
transcriptional change of the CitE homolog gene (TIGR Mouse Gene Index TC20248): down-regulated | transcriptional change of the CitE homolog gene (TIGR Mouse Gene Index TC20248) (listed as β3-agonist): downregulated by a factor of two

Source: patent US20030104603A1, “Protein” (priority 2001, published 2003)
